pIC50: −log10 of the molar value. Converted amounts (≈) assume the structure as drawn.
How the values were obtained:
Cryptococcus neoformans [1] = test: Antifungal activity against Cryptococcus neoformans H99 assessed as fungal growth inhibition measured after 48 hrs by resazurin assay; assay type: functional
Candida albicans [2] = test: Antifungal activity against fluconazole-resistant Candida albicans 901 assessed as inhibition of fungal growth; assay type: functional
Cryptococcus neoformans [3] = test: Antifungal activity against Cryptococcus neoformans H99; assay type: functional
Candida tropicalis [4] = test: Antifungal activity against Candida tropicalis 5008 assessed as reduction in fungal growth; assay type: functional
Candida tropicalis [5] = test: Antifungal activity against Candida tropicalis 3890 assessed as reduction in fungal growth; assay type: functional
Candida albicans [6] = test: Antifungal activity against fluconazole-resistant Candida albicans 904 assessed as reduction in fungal growth by NCCLS method; assay type: functional
[7] = molecular target: T1, Sterol 24-C-methyltransferase (Candida albicans (strain SC5314 / ATCC MYA-2876) (Yeast), UniProt O74198); test: Inhibition of N-terminal His-tagged Candida albicans SC5314 Erg6 extracted from Escherichia coli BL21 (DE3) methyltransferase activity using zymosterol as substrate pre-incubated for 15 mins followed by substrate addition by liquid scintillation counter analysis
T1 sequence (O74198 whole entry): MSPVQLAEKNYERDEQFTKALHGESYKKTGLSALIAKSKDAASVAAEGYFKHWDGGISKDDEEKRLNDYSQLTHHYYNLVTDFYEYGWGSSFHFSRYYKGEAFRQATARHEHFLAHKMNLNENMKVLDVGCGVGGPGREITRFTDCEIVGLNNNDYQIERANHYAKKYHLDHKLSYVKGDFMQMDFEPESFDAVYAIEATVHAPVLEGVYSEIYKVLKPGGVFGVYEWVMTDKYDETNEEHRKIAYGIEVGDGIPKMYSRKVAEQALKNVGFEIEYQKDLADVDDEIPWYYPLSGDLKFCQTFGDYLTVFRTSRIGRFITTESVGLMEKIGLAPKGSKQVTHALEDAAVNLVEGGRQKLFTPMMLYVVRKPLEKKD

[8] = molecular target: T1, Sterol 24-C-methyltransferase; test: Inhibition of Candida albicans SC5314 Erg6

SMILES: Clc1ccc(N/N=C(\c2ccccc2)c2ccccn2)nc1
- MIC50 (Cryptococcus neoformans [1]): 0.5 µg/mL (≈ 1.62 µM)
- MIC50 (Candida albicans [2]): 0.5 µg/mL (≈ 1.62 µM)

SMILES: O=C(CCCCCCCOc1ccc(CN2CCN(CC(O)(Cn3cncn3)c3ccc(F)cc3F)CC2)cc1)NO (centres undefined)
- MIC80 (Cryptococcus neoformans [3]): 0.5 µg/mL (≈ 0.852 µM)
- MIC80 (Candida tropicalis [4]): 0.5 µg/mL (≈ 0.852 µM)
- MIC80 (Candida tropicalis [5]): 0.5 µg/mL (≈ 0.852 µM)

SMILES: COc1cc2c(cc1-c1c(C)noc1C)[nH]c1ncnc(NCCCCCCC(=O)NO)c12
- MIC80 (Cryptococcus neoformans [3]): 8 µg/mL (≈ 17.7 µM)
- MIC80 (Candida albicans [6]): 0.5 µg/mL (≈ 1.1 µM)

SMILES: Cc1c(-n2c(-c3ccc(Br)cc3)cs/c2=N\c2ccccc2)c(=O)n(-c2ccccc2)n1C
- pIC50 [7]: 6.24

SMILES: C=C(CC[C@@H](CO)[C@H]1CC[C@@]2(C)C3=C(CC[C@]12C)[C@@]1(C)CC[C@@H](OC(=O)C[C@@](C)(O)CC(=O)O)C(C)(C)[C@@H]1CC3)[C@H](C)C(=O)O
- pIC50 [8]: 4.94
